Assay results reported in paper PMC6950571 (Marine Drugs, 2019).
Bridge positions count the residues as written; N and C are the ends. Peptide text beside a SMILES is read from it.

Target: T1, rα3β2 nAChRs expressed in Xenopus laevis oocytes (Rattus norvegicus, UniProt P04757+P12390)
T1 construct: expressed in transfected cells; host or cells: Xenopus laevis oocytes, injected with α3 and β2 mRNA; clones from Dr. Steven Heinemann, Salk Institute
Assay: cell-based
Conditions: SEM

T1 sequence (P04757 26-499 limits assumed): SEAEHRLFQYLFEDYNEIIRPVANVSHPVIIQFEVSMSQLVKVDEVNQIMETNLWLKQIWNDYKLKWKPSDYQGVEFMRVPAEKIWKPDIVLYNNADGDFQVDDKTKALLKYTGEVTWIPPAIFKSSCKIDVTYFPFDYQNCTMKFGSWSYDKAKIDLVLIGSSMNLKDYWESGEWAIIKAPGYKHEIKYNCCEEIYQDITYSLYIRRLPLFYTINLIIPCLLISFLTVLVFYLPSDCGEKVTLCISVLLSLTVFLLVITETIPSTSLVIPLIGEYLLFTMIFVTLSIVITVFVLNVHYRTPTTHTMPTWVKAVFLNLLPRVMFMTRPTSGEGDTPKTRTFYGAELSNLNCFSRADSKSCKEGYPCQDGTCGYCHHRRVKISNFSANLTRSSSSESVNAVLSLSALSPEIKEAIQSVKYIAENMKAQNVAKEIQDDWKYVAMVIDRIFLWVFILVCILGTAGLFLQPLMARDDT
T1 sequence (P12390 25-500 limits assumed): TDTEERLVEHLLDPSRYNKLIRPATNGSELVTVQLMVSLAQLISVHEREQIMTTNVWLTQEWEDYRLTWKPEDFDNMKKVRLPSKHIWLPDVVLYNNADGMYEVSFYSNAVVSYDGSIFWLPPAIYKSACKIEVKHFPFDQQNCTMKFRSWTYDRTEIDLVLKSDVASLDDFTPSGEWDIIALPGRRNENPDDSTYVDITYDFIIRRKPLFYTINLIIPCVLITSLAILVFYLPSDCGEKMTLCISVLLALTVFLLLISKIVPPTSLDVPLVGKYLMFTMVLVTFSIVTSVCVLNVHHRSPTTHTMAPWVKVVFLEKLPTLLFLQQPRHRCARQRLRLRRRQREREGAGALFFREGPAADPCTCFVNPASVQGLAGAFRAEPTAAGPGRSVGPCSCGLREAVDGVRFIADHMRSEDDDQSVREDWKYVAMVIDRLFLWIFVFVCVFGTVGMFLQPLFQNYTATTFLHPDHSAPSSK

NCCCC[C@@H]1NC(=O)[C@H](CO)NC(=O)[C@H](CO)NC(=O)[C@H](CO)NC(=O)[C@H](Cc2c[nH]c3ccccc23)NC(=O)[C@H](Cc2ccc(O)cc2)NC(=O)[C@@H]2CSSC[C@H](NC(=O)[C@@H](NC(=O)[C@@H](N)Cc3c[nH]c4ccccc34)CSSC[C@@H](C(=O)O)NC(=O)[C@H](Cc3c[nH]c4ccccc34)NC1=O)C(=O)N[C@@H](CO)C(=O)N[C@@H](Cc1ccc(O)cc1)C(=O)N1CCC[C@H]1C(=O)NCC(=O)N2 [KTM] (H-WCCSYPGCYWSSSKWC-OH; disulfide 2-16, 3-8)
IC50: 0.19 ± 0.02 nM
